Legend:
[1] = test system: D-283MED (Other Solid Carcinomas); test: Bliss excess, mean over the matrix (fraction); higher = more synergy
Procedure, shortened: (§1)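 Cell lines grown in DMEM/F12 or RPMI with 10% FBS were plated in 1536-well plates and held 24 hours at 37°C, 5% CO2 before 72 hours of exposure to two-drug dose matrices, with DMSO typically at 0.2%. CellTiter-Glo 2.0 luminescence gave viability, which was converted to inhibition. Vehicle wells were set to 0 and blank wells to 1. Combination Emax is the second-highest inhibition in the matrix, and Bliss excess is the observed combination effect minus the expected EA + EB − EA·EB, where EA and EB are the single-agent effects.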

[2] = test system: ETK-1 (Biliary Tract Carcinoma); test: as above
Procedure, shortened: as §1

EW-22 (Ewing's Sarcoma) = test: as above
Procedure, shortened: as §1

[3] = test system: GDM-1 (Acute Myeloid Leukemia); test: as above
Procedure, shortened: as §1

HCC38 (Breast Carcinoma) = test: as above
Procedure, shortened: as §1

HuO9 (Osteosarcoma) = test: as above
Procedure, shortened: as §1

[4] = test system: MES-SA (Other Solid Carcinomas); test: as above
Procedure, shortened: as §1

[5] = test system: NCI-H1688 (Small Cell Lung Carcinoma); test: as above
Procedure, shortened: as §1

[6] = test system: NOMO-1 (Acute Myeloid Leukemia); test: as above
Procedure, shortened: as §1

[7] = test system: RCC10RGB (Kidney Carcinoma); test: as above
Procedure, shortened: as §1

[8] = test system: SKN-3 (Head and Neck Carcinoma); test: as above
Procedure, shortened: as §1

[9] = test system: SW948 (Colorectal Carcinoma); test: as above
Procedure, shortened: as §1

[10] = test system: U-118-MG (Low Grade Glioma); test: as above
Procedure, shortened: as §1

[11] = test system: 647-V (Bladder Carcinoma); test: combination Emax (second highest fraction inhibited in the dose matrix, 72 h); higher = more inhibition; extreme values may be limits of the assay
Procedure, shortened: as §1

[12] = test system: HCC1143 (Breast Carcinoma); test: as above
Procedure, shortened: as §1

[13] = test system: MES-SA (Other Solid Carcinomas); test: as above
Procedure, shortened: as §1

MSTO-211H (Mesothelioma) = test: as above
Procedure, shortened: as §1

[14] = test system: SLVL (B-Cell Non-Hodgkin's Lymphoma); test: as above
Procedure, shortened: as §1

[15] = test system: SNG-M (Endometrial Carcinoma); test: as above
Procedure, shortened: as §1

[16] = test system: SW48 (Colorectal Carcinoma); test: Bliss excess, mean over the matrix (fraction); higher = more synergy
Procedure, shortened: as §1
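For Bliss excess, mean over the matrix in this document: after 72 h of two-drug dosing.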

Structure (SMILES) | Bliss excess [1] | Bliss excess [2] | Bliss excess (EW-22 (Ewing's Sarcoma)) | Bliss excess [3] | Bliss excess (HCC38 (Breast Carcinoma)) | Bliss excess (HuO9 (Osteosarcoma)) | Bliss excess [4] | Bliss excess [5] | Bliss excess [6] | Bliss excess [7] | Bliss excess [8] | Bliss excess [9] | Bliss excess [10] | combination Emax [11] | combination Emax [12] | combination Emax [13] | combination Emax (MSTO-211H (Mesothelioma)) | combination Emax [14] | combination Emax [15] | Bliss excess [16]
CN(C)CCCOc1ccc(-c2ccc3ncc4c(c3c2)n(C2CCOCC2)c(=O)n4C)cn1 [AZD0156] + O=C(c1cc(Cc2n[nH]c(=O)c3ccccc23)ccc1F)N1CCN(C(=O)C2CC2)CC1 [Olaparib] (first compound max 3 µM, partner max 3 µM) | 0.115 | -0.0029 | 0.217 | 0.109 | 0.0454 | 0.0888 | 0.142 | -0.0122 | 0.0887 | -0.0356 | -0.0165 | -0.0231 | 0.0122 | 0.257 | 0.203 | 0.353 | 0.0713 | 0.313 | 0.0957 | –
CN(CCO)CC[C@H](CSc1ccccc1)Nc1ccc(S(=O)(=O)NC(=O)c2ccc(N3CCC([C@@H](O)c4ccccc4-c4ccc(Cl)cc4)CC3)cc2)cc1S(=O)(=O)C(F)(F)F [AZD4320] + C1CN(CCC1(C(=O)N[C@@H](CCO)C2=CC=C(C=C2)Cl)N)C3=NC=NC4=C3C=CN4 [Capivasertib] (first compound max 1 µM, 7x7, partner max 3 µM) | 0.0139 | -0.0305 | -0.0341 | -0.0206 | 0.0057 | 0.0355 | -0.0088 | -0.0173 | -0.0012 | -0.0576 | -0.0375 | -0.0497 | -0.0546 | 0.147 | 0.297 | 0.282 | 0.48 | 0.622 | 0.528 | 0.0148
CN(CCO)CC[C@H](CSc1ccccc1)Nc1ccc(S(=O)(=O)NC(=O)c2ccc(N3CCC([C@@H](O)c4ccccc4-c4ccc(Cl)cc4)CC3)cc2)cc1S(=O)(=O)C(F)(F)F [AZD4320] + C=CCn1c(=O)c2cnc(Nc3ccc(N4CCN(C)CC4)cc3)nc2n1-c1cccc(C(C)(C)O)n1 [AZD1775] (first compound max 1 µM, partner max 1 µM) | -0.0122 | -0.0295 | 0.0897 | 0.0814 | 0.0723 | 0.0484 | -0.0017 | 0.0959 | 0.0233 | -0.0183 | -0.0056 | 0.0744 | 0.0108 | 0.949 | 0.588 | 0.865 | 0.933 | 0.966 | 0.903 | 0.038
CN(CCO)CC[C@H](CSc1ccccc1)Nc1ccc(S(=O)(=O)NC(=O)c2ccc(N3CCC([C@@H](O)c4ccccc4-c4ccc(Cl)cc4)CC3)cc2)cc1S(=O)(=O)C(F)(F)F [AZD4320] + CCN(CCO)CCCOc1ccc2c(Nc3cc(CC(=O)Nc4cccc(F)c4)[nH]n3)ncnc2c1 [AZD2811] (first compound max 1 µM, 7x7, partner max 1 µM) | 0.0522 | -0.0297 | 0.0467 | 0.0067 | 0.044 | 0.0376 | 0.0657 | 0.0729 | 0.208 | -0.0539 | -0.0333 | -0.0196 | -0.0148 | 0.708 | 0.304 | 0.513 | 0.837 | 0.94 | 0.775 | -0.0226
CN(CCO)CC[C@H](CSc1ccccc1)Nc1ccc(S(=O)(=O)NC(=O)c2ccc(N3CCC([C@@H](O)c4ccccc4-c4ccc(Cl)cc4)CC3)cc2)cc1S(=O)(=O)C(F)(F)F [AZD4320] + CN(C)CCCOc1ccc(-c2ccc3ncc4c(c3c2)n(C2CCOCC2)c(=O)n4C)cn1 [AZD0156] (first compound max 1 µM, 7x7, partner max 1 µM) | -0.0353 | -0.0509 | 0.0228 | -0.0248 | -0.0504 | 0.0143 | -0.0315 | 0.0127 | 0.0017 | -0.09 | -0.0296 | -0.0566 | -0.0537 | 0.172 | 0.252 | 0.128 | 0.435 | 0.461 | 0.328 | -0.0545
CN(CCO)CC[C@H](CSc1ccccc1)Nc1ccc(S(=O)(=O)NC(=O)c2ccc(N3CCC([C@@H](O)c4ccccc4-c4ccc(Cl)cc4)CC3)cc2)cc1S(=O)(=O)C(F)(F)F [AZD4320] + C[C@@H]1COCCN1C2=NC(=NC(=C2)C3(CC3)[S@](=N)(=O)C)C4=C5C=CNC5=NC=C4 [AZD6738] (first compound max 1 µM, 7x7, partner max 10 µM) | 0.0139 | -0.0463 | 0.0762 | -0.0144 | 0.0306 | -0.0242 | -0.0382 | -0.0076 | 0.0303 | -0.0734 | -0.0127 | -0.0873 | -0.0285 | 0.816 | 0.842 | 0.691 | 0.959 | 0.94 | 0.973 | 0.0245
CN(CCO)CC[C@H](CSc1ccccc1)Nc1ccc(S(=O)(=O)NC(=O)c2ccc(N3CCC([C@@H](O)c4ccccc4-c4ccc(Cl)cc4)CC3)cc2)cc1S(=O)(=O)C(F)(F)F [AZD4320] + C[C@@H](Nc1cc(F)cc(F)c1)c1cc(C(=O)N(C)C)cc2c(=O)cc(N3CCOCC3)oc12 [AZD8186] (first compound max 1 µM, 7x7, partner max 3 µM) | 0.0429 | -0.046 | -0.0261 | 0.0375 | -0.0028 | 0.0515 | 0.0139 | 0.0259 | 0.0515 | -0.0652 | 0.0112 | -0.101 | 0.0018 | 0.989 | 0.418 | 0.297 | 0.751 | 0.955 | 0.674 | -0.0048
CN(CCO)CC[C@H](CSc1ccccc1)Nc1ccc(S(=O)(=O)NC(=O)c2ccc(N3CCC([C@@H](O)c4ccccc4-c4ccc(Cl)cc4)CC3)cc2)cc1S(=O)(=O)C(F)(F)F [AZD4320] + Cc1cc2ncnn2cc1Nc1ncc2c(n1)n(C1CCOCC1)c(=O)n2C [AZD7648] (first compound max 1 µM, 7x7, partner max 10 µM) | 0.0051 | -0.0639 | -0.0165 | -0.0041 | -0.0694 | 0.0482 | -0.0399 | 0.0024 | 0.0103 | -0.077 | -0.0463 | -0.0233 | -0.0154 | 0.219 | 0.282 | 0.226 | 0.327 | 0.605 | 0.264 | 0.0314
CN(CCO)CC[C@H](CSc1ccccc1)Nc1ccc(S(=O)(=O)NC(=O)c2ccc(N3CCC([C@@H](O)c4ccccc4-c4ccc(Cl)cc4)CC3)cc2)cc1S(=O)(=O)C(F)(F)F [AZD4320] + Cn1cnc2c(F)c(Nc3ccc(Br)cc3Cl)c(C(=O)NOCCO)cc21 [Selumetinib] (first compound max 1 µM, 7x7, partner max 3 µM) | 0.0172 | 0.0502 | 0.0011 | 0.0223 | -0.0375 | 0.041 | 0.0404 | 0.0285 | 0.143 | -0.0159 | 0.0268 | -0.0332 | -0.0149 | 0.971 | 0.361 | 0.246 | 0.531 | 0.966 | 0.526 | -0.0159
COc1nnc2ccc(N3CCC(c4ccc(OCCN5CCN(C)C(=O)[C@H]5C)cc4)CC3)nn12 [AZD5153] + C=CCn1c(=O)c2cnc(Nc3ccc(N4CCN(C)CC4)cc3)nc2n1-c1cccc(C(C)(C)O)n1 [AZD1775] (first compound max 1 µM, partner max 1 µM) | -0.034 | -0.0736 | 0.0427 | -0.0247 | -0.107 | -0.035 | -0.0334 | -0.0604 | -0.0364 | 0.0177 | -0.0342 | -0.11 | -0.0235 | 0.637 | 0.677 | 0.685 | 0.255 | 0.738 | 0.642 | -0.0699
COc1nnc2ccc(N3CCC(c4ccc(OCCN5CCN(C)C(=O)[C@H]5C)cc4)CC3)nn12 [AZD5153] + CC1(C)CCC(CN2CCN(c3ccc(C(=O)NS(=O)(=O)c4ccc(NCC5CCOCC5)c([N+](=O)[O-])c4)c(Oc4cnc5[nH]ccc5c4)c3)CC2)=C(c2ccc(Cl)cc2)C1 [Venetoclax] (first compound max 1 µM, 7x7, partner max 1 µM) | -0.0343 | -0.11 | -0.0176 | 0.0348 | -0.0324 | -0.0198 | -0.06 | -0.003 | 0.0051 | -0.0296 | -0.0576 | -0.0016 | -0.0349 | 0.463 | 0.357 | 0.386 | 0.271 | 0.802 | 0.548 | -0.0081
COc1nnc2ccc(N3CCC(c4ccc(OCCN5CCN(C)C(=O)[C@H]5C)cc4)CC3)nn12 [AZD5153] + CCN(CCO)CCCOc1ccc2c(Nc3cc(CC(=O)Nc4cccc(F)c4)[nH]n3)ncnc2c1 [AZD2811] (first compound max 1 µM, 7x7, partner max 1 µM) | 0.001 | -0.118 | -0.0779 | -0.0378 | -0.0398 | -0.0983 | -0.0028 | 0.0116 | -0.0225 | -0.133 | -0.0436 | -0.102 | -0.0317 | 0.545 | 0.431 | 0.587 | 0.26 | 0.696 | 0.502 | -0.0821
COc1nnc2ccc(N3CCC(c4ccc(OCCN5CCN(C)C(=O)[C@H]5C)cc4)CC3)nn12 [AZD5153] + C[C@@H]1COCCN1C2=NC(=NC(=C2)C3(CC3)[S@](=N)(=O)C)C4=C5C=CNC5=NC=C4 [AZD6738] (first compound max 1 µM, 7x7, partner max 10 µM) | -0.0087 | 0.0107 | -0.0258 | 0.0146 | -0.0182 | 0.031 | 0.0781 | 0.0719 | -0.0324 | 0.0638 | 0.0128 | -0.0493 | 0.0267 | 0.789 | 0.824 | 0.763 | 0.359 | 0.689 | 0.901 | -0.109
